{
  "source": "patent EP4813989A1",
  "about": "“CRYSTAL, PHARMACEUTICAL COMPOSITION, PREPARATION METHOD THEREFOR, AND USE THEREOF” (TYK Medicines, Inc., priority 2023, dated 2025)",
  "format_in_all_cases": "physicochemical",
  "key": {"[1]": {"assay": "Light exposure test, related substances by HPLC", "details": "4500lx±500lx, open", "from_the_text": "An investigation method for the light exposure test can be seen in Table 13 below.\nResults of related substances in each crystal form under the light exposure condition (4500lx±500lx) can be seen in Table 17.\nHPLC detection results of related substances under the light exposure condition can be seen as follows: Table 17"}, "[2]": {"assay": "Accelerated test, related substances by HPLC", "details": "40°C±2°C, 75%RH±5%RH; for Impurity content RRT0.55 / Impurity content RRT0.66 / Impurity content RRT0.71 / Impurity content RRT0.94 / Impurity content RRT1.02 / Impurity content RRT1.06 / Impurity content RRT1.08 / Impurity content RRT1.15 / Total impurities: open", "method": "An investigation method for the accelerated test can be seen in Table 14 below.\nChange results of related substances in each crystal form under the accelerated condition (40°C±2°C, 75%RH±5%RH) can be seen in Table 18.\nHPLC detection results of related substances under the accelerated condition can be seen as follows: Table 18"}, "[3]": {"assay": "Flowability test (angle of repose)", "method": "A flowability determination method was as follows: an angle of repose was determined by using a device composed of 2 to 3 funnels connected in series in a staggered manner, and drug powder was slowly and uniformly passed through the funnels onto a stationary base with a diameter d, so as to form a symmetric powder pile with a single layer of powder at the bottom. During the formation of the powder pile, a height of the funnels was maintained within 2-4 cm from a top of the powder pile, a height h of the cone was determined, and the angle of repose was calculated as tanθ=h/(d/2)."}},
  "data": [
    {"compound": "C[C@@H](Nc1ccn2ncc(C3=NOC(C)(C)N3)c2n1)c1cc(F)cc(F)c1F", "note": "[crystal form E]", "values": [
      {"measurement": "Impurity content RRT1.02", "setting": "[1]; 5 days", "result": 0.22, "unit": "%"},
      {"measurement": "Impurity content RRT1.06", "setting": "[1]; 5 days", "result": 0.05, "unit": "%"},
      {"measurement": "Impurity content RRT1.08", "setting": "[1]; 5 days", "result": 0.20, "unit": "%"},
      {"measurement": "Impurity content RRT1.15", "setting": "[1]; 5 days", "result": 0.04, "unit": "%"},
      {"measurement": "Total impurities", "setting": "[1]; 5 days", "result": 0.92, "unit": "%"},
      {"measurement": "Impurity content RRT0.55", "setting": "[1]; 11 days", "result": 0.04, "unit": "%"},
      {"measurement": "Impurity content RRT0.66", "setting": "[1]; 11 days", "result": 0.22, "unit": "%"},
      {"measurement": "Impurity content RRT0.71", "setting": "[1]; 11 days", "result": 0.14, "unit": "%"},
      {"measurement": "Impurity content RRT0.92", "setting": "[1]; 11 days", "result": 0.03, "unit": "%"},
      {"measurement": "Impurity content RRT0.94", "setting": "[1]; 11 days", "result": 0.03, "unit": "%"},
      {"measurement": "Impurity content RRT1.02", "setting": "[1]; 11 days", "result": 0.20, "unit": "%"},
      {"measurement": "Impurity content RRT1.06", "setting": "[1]; 11 days", "result": 0.04, "unit": "%"},
      {"measurement": "Impurity content RRT1.08", "setting": "[1]; 11 days", "result": 0.24, "unit": "%"},
      {"measurement": "Impurity content RRT1.15", "setting": "[1]; 11 days", "result": 0.03, "unit": "%"},
      {"measurement": "Total impurities", "setting": "[1]; 11 days", "result": 0.98, "unit": "%"},
      {"measurement": "Impurity content RRT0.55", "setting": "[1]; 32 days", "result": 0.03, "unit": "%"},
      {"measurement": "Impurity content RRT0.66", "setting": "[1]; 32 days", "result": 0.25, "unit": "%"},
      {"measurement": "Impurity content RRT0.71", "setting": "[1]; 32 days", "result": 0.13, "unit": "%"},
      {"measurement": "Impurity content RRT0.94", "setting": "[1]; 32 days", "result": 0.08, "unit": "%"},
      {"measurement": "Impurity content RRT1.02", "setting": "[1]; 32 days", "result": 0.20, "unit": "%"},
      {"measurement": "Impurity content RRT1.06", "setting": "[1]; 32 days", "result": 0.04, "unit": "%"},
      {"measurement": "Impurity content RRT1.08", "setting": "[1]; 32 days", "result": 0.25, "unit": "%"},
      {"measurement": "Impurity content RRT1.15", "setting": "[1]; 32 days", "result": 0.04, "unit": "%"},
      {"measurement": "Total impurities", "setting": "[1]; 32 days", "result": 1.02, "unit": "%"},
      {"measurement": "Increase of impurity RRT1.08 content", "setting": "[2]; 32 days", "result": 0.03, "unit": "%"},
      {"measurement": "Impurity content RRT0.55", "setting": "[2]; 0 day", "result": 0.04, "unit": "%"},
      {"measurement": "Impurity content RRT0.66", "setting": "[2]; 0 day", "result": 0.21, "unit": "%"},
      {"measurement": "Impurity content RRT0.71", "setting": "[2]; 0 day", "result": 0.14, "unit": "%"},
      {"measurement": "Impurity content RRT0.94", "setting": "[2]; 0 day", "result": 0.03, "unit": "%"},
      {"measurement": "Impurity content RRT1.02", "setting": "[2]; 0 day", "result": 0.21, "unit": "%"},
      {"measurement": "Impurity content RRT1.06", "setting": "[2]; 0 day", "result": 0.07, "unit": "%"},
      {"measurement": "Impurity content RRT1.08", "setting": "[2]; 0 day", "result": 0.17, "unit": "%"},
      {"measurement": "Impurity content RRT1.15", "setting": "[2]; 0 day", "result": 0.03, "unit": "%"},
      {"measurement": "Total impurities", "setting": "[2]; 0 day", "result": 0.89, "unit": "%"},
      {"measurement": "Impurity content RRT0.55", "setting": "[2]; 5 days", "result": 0.04, "unit": "%"},
      {"measurement": "Impurity content RRT0.66", "setting": "[2]; 5 days", "result": 0.21, "unit": "%"},
      {"measurement": "Impurity content RRT0.71", "setting": "[2]; 5 days", "result": 0.15, "unit": "%"},
      {"measurement": "Impurity content RRT0.94", "setting": "[2]; 5 days", "result": 0.03, "unit": "%"},
      {"measurement": "Impurity content RRT1.02", "setting": "[2]; 5 days", "result": 0.21, "unit": "%"},
      {"measurement": "Impurity content RRT1.06", "setting": "[2]; 5 days", "result": 0.05, "unit": "%"},
      {"measurement": "Impurity content RRT1.08", "setting": "[2]; 5 days", "result": 0.18, "unit": "%"},
      {"measurement": "Impurity content RRT1.15", "setting": "[2]; 5 days", "result": 0.03, "unit": "%"},
      {"measurement": "Total impurities", "setting": "[2]; 5 days", "result": 0.89, "unit": "%"},
      {"measurement": "Impurity content RRT0.55", "setting": "[2]; 11 days", "result": 0.04, "unit": "%"},
      {"measurement": "Impurity content RRT0.66", "setting": "[2]; 11 days", "result": 0.21, "unit": "%"},
      {"measurement": "Impurity content RRT0.71", "setting": "[2]; 11 days", "result": 0.15, "unit": "%"},
      {"measurement": "Impurity content RRT0.94", "setting": "[2]; 11 days", "result": 0.02, "unit": "%"},
      {"measurement": "Impurity content RRT1.02", "setting": "[2]; 11 days", "result": 0.21, "unit": "%"},
      {"measurement": "Impurity content RRT1.06", "setting": "[2]; 11 days", "result": 0.05, "unit": "%"},
      {"measurement": "Impurity content RRT1.08", "setting": "[2]; 11 days", "result": 0.21, "unit": "%"},
      {"measurement": "Impurity content RRT1.15", "setting": "[2]; 11 days", "result": 0.03, "unit": "%"},
      {"measurement": "Total impurities", "setting": "[2]; 11 days", "result": 0.94, "unit": "%"},
      {"measurement": "Impurity content RRT0.55", "setting": "[2]; 32 days", "result": 0.04, "unit": "%"},
      {"measurement": "Impurity content RRT0.66", "setting": "[2]; 32 days", "result": 0.21, "unit": "%"},
      {"measurement": "Impurity content RRT0.71", "setting": "[2]; 32 days", "result": 0.16, "unit": "%"},
      {"measurement": "Impurity content RRT0.94", "setting": "[2]; 32 days", "result": 0.04, "unit": "%"},
      {"measurement": "Impurity content RRT1.02", "setting": "[2]; 32 days", "result": 0.20, "unit": "%"},
      {"measurement": "Impurity content RRT1.06", "setting": "[2]; 32 days", "result": 0.04, "unit": "%"},
      {"measurement": "Impurity content RRT1.08", "setting": "[2]; 32 days", "result": 0.20, "unit": "%"},
      {"measurement": "Impurity content RRT1.15", "setting": "[2]; 32 days", "result": 0.05, "unit": "%"},
      {"measurement": "Total impurities", "setting": "[2]; 32 days", "result": 0.95, "unit": "%"},
      {"measurement": "angle of repose", "setting": "[3]", "result": 37.9, "unit": "°"}
    ]}
  ]
}
